Data from patent publication US8614222B2, “Methods of preventing and treating low bone mass diseases” (The Trustees of Columbia University in the City of New York, priority 2008, dated 2013).
Entries after “also recorded” stand apart in the source; their conditions may differ.

Columns and labels:
[1] = test system: primary osteoblasts; experiment: Real-time PCR of gene expression in primary osteoblasts treated with serotonin; assay type: cell-based, mouse; conditions: serotonin 50 to 100 μM, 24 hr
Method: Calvaria osteoblasts were extracted by triple collagenase/trypsine digestion from 4 day-old CD1 pups and differentiated with ascorbic acid as previously described (Duey et al., 2000, Cell 100:197-207).
(§1) Osteoblasts were treated in serum-free medium with vehicle or Serotonin (50 to 100 μM, Sigma) for 24 hr. Total RNA were extracted with Trizol (Invitrogen). cDNA were generated using the ABI Reverse transcriptase system and random hexanucleotide primers. Real-time PCR was performed using superarray primers on a Stratagene real time PCR cycler and Actin expression was used as endogenous control. Chromatin immunoprecipitation assays (ChIP) were performed by standard procedures using primary osteoblasts. Microarray analysis was performed as described previously (Glass et al., 2005, Dev. Cell 8:751-764).

[2] = test system: CREB; experiment: CREB phosphorylation (Western blot) and CREB binding to Cyclin D1 promoter (ChIP) in primary osteoblasts; assay type: cell-based, mouse
Method: as §1
Osteoblasts were treated in serum-free medium with vehicle or Serotonin (50 to 100 μM, Sigma) for 24 hr. Lysates from primary osteoblasts or crushed frozen bones were prepared in RIPA buffer in the presence of protease and phosphatase inhibitors. Twenty to 60 μg of proteins were separated by SDS-PAGE in reducing conditions and transferred on nitrocellulose membrane using standard protocols. Membranes were incubated with primary antibodies including total or anti-Phospho CREB (Cell Signaling Technology).

[3] = test system: peripheral serotonin; experiment: Peripheral serotonin levels in wild-type mice (Example 11); assay type: in vivo; conditions: 5 mice per compound
Method: (§2) Serotonin serum levels were quantified using immunoassay kits from Fitzgerald (Serotonin) and serotonin levels in the different regions of the brain were quantified by HPLC method as described previously (Mann et al., 1992, Arch. Gen. Psychiatry 49:442-446).
The following three compounds were tested for their ability to effect peripheral serotonin levels in wild-type mice:
Also tested as a negative control was vehicle alone. Each compound as well as vehicle was administered to 5 mice and the resulting peripheral serotonin levels were as follows: […]

[4] = target: rb 5-HT1B receptors (Oryctolagus cuniculus, UniProt P49144); conditions: cited from earlier work
[5] = test system: peripheral serotonin; experiment: Effect of CBMIDA and pCPA on peripheral (serum) serotonin in mice (Example 1); assay type: in vivo; conditions: for reduction of peripheral (serum) serotonin: 250 mg/kg orally
Method: One month old C57B1/6 inbred male mice, weighing 15-16 g were used in the experiments. Animals were housed under 12 h light/12 h dark conditions in a room with controlled temperature (22° C.) and humidity (60%). Mice had ad libitum access to food and water, and were used after a minimum of 4 days of acclimatization to the housing conditions. All experiments were conducted following Columbia University Guidelines for the Animal Use and Care of laboratory mice.
(§3) Before the experiments, animals were separated into individual cages one day prior to the experiment. Compounds were fed orally (gavage) to the mouse, calculated according to the weight of the mouse, twice a day at 1700 h and at 1100 h. […] This route created two potential barriers for the compound to reach the brain. […] Control animals received the same volume of vehicle. Blood was collected through heart puncture on isofluorane-anaesthesized animals and allowed to clot for 5 minutes on ice. The serum was separated, snap chilled in liquid nitrogen and frozen at −80° C. till analyzed. Brainstems from all the animals were collected and processed for brain serotonin measurement through HPLC.
The Serotonin ELISA kit obtained from the Fitzgerald company was used to measure derivatized serotonin from serum. Derivatization is part of the sample preparation. Serotonin present in the serum was first quantitatively acylated into N-Acylserotonin using the acylation reagent. The principle of the assay is based on competitive ELISA, wherein serotonin that is bound to the solid phase of the plate and the N-acylserotonin compete for the fixed number of antiserum binding sites. When the reaction is in equilibrium, free antigen and free antigen-antiserum complexes are removed by washing.
The antibody bound to the solid phase serotonin is then detected using antirabbit/peroxidase. The substrate TMB/Peroxidase reaction is read at 450 nm. The amount of antibody bound to the solid phase serotonin is inversely proportional to the concentration of serotonin in the sample.
Catechol-3,6-bis methyleneiminodiacetic acid (CBMIDA) (basic structure is an EDTA-like compound and the catechol ring is at the centre) synthesized at the Columbia University Chemistry division, and para-chlorophenylalanine (pCPA) obtained from Sigma Aldrich Corp. were used. Each compound was dissolved with twice molar solution of NaHCO3 in water and given to mouse orally at 250 and 500 mg/kg/dose.

[6] = test system: brain serotonin; experiment: Brain serotonin / blood brain barrier after oral pCPA in mice; assay type: in vivo; conditions: 250 mg/kg orally
Method: as §3

[7] = test system: Lrp5−/− mice; experiment: pCPA treatment of Lrp5−/− and WT mice; assay type: in vivo
Method: Consistent with the conclusion that the increase in serum serotonin level is responsible fully or partly for the bone phenotype of the Lrp5−/− mice is the discovery that pCPA, a serotonin synthesis inhibitor (Eldridge et al., 1981, Ann. Rev. Physiol. 43:121-135), prevented the appearance of the Lrp5−/− bone phenotype by decreasing serotonin production. WT and Lrp5−/− mice were treated with 300 mg/kg pCPA intraperitoneally three times per week, from 3 weeks to 12 weeks of age (FIG. 7A) and the changes in serum serotonin levels, TPH1 expression in gut and TPH2 expression in brain stem were analyzed. Bone histomorphometry was also performed. […] This rescue of the Lrp5−/− phenotype was achieved by normalization of the gut TPH1 mRNA and of serum serotonin levels (FIGS. 7C and 7D).
Generation of Lrp5−/− (Kato et al., 2002, J. Cell Biol. 157:303-314) β-cateninfloxed/floxed (Glass et al., 2005, Dev. Cell 8:751-764), α1(I)collagen-cre transgenic (Dacquin et al., 2002, Dev. Dyn. 224:245-251) and Htt−/− (Ansorge et al., 2008, J. Neurosci. 28:199-207) mice were as described previously. Lrp5+/−;Htt+/− double heterozygous mice were generated by crossing Lrp5+/− and Htt+/− mice. Three week-old Wt or Lrp5−/− mice were administered pCPA on alternate days for 9 weeks by i.p. All animal protocols were approved by the Animal Care Committees of Columbia University.
Static histomorphometry measurements were performed as previously described in accordance with standard nomenclature, using the Osteomeasure Analysis System (Osteometrics, Inc) (Ducy et al., 2000, Cell 100:197-207). Four to 9 animals were assigned per group.
as §2

[8] = test system: ovariectomized rats; experiment: Curative regimen in ovariectomized rats (histomorphometry, μCT, biomechanical testing); assay type: in vivo; conditions: OVX rats
Method: Virgin female Sprague-Dawley rats (National Institute of Nutrition, Hyderabad, India) were obtained at 3 months of age and allowed to acclimate to the facility for 1 week before study initiation and surgical procedures. They were housed under a 12 hour:12 hour light:dark cycle and provided throughout the study with water and PMI (Purina Mills, Incorporated) Certified Rodent Laboratory Chow. Rats were subjected to either bilateral ovariectomy or a sham operation under isoflurane anesthesia. […] The rats were divided into two groups of sham-operated and ovariectomized animals and left untreated for 3 weeks to allow bone loss to occur. One group of sham and one group of ovariectomized rats (n=10/group) were killed as baseline controls to determine bone loss before the start of LP-533,401 or PTH administration. The remaining animals (n=5-10/group) received vehicle or LP-533,401 (250 mg/kg/day) by gavage, or recombinant human PTH (80 ug/kg) by daily subcutaneous (s.c.) injection for 4 weeks. The 80 ug/kg dose of PTH was selected as being optimal for reversal of ovariectomy-induced bone loss in rats based on previous studies, while the dose of LP-533,401 was selected based on the effective dose for bone loss-reversal observed in mice experiments. To label bone-forming surfaces, animals were injected s.c. with calcein (8 mg/kg) at 10 and 3 days before death. Animals were killed by an overdose of Isofluorane anesthesia. The right tibia and lumbar vertebra 2 (L2) were collected, cleaned of excess soft tissue, fixed overnight in 10% formalin and processed for μCT or histomorphometric analysis. The right femur and L3 were cleaned of excess tissue and stored at −20° C. prior to biomechanical testing.
Bone histomorphometry was performed as previously described (Duey et al., 2000, Cell 100:197-207; Takeda et al., 2002, Cell 111:305-317; Parfitt et al., 1987, J. Bone Miner. Res. 2:595-610). Briefly, lumbar vertebrae were dissected, fixed for 24 hr in 10% formalin, dehydrated in graded ethanol series, and embedded in methyl methacrylate resin according to standard protocols (Parfitt et al., 1987, J. Bone Miner. Res. 2:595-610). Von Kossa/Von Gieson staining was performed using 7 μm sections for bone volume over tissue volume (BV/TV) measurement. Bone formation rate (BFR) was analyzed by the calcein double-labeling method (Ducy et al., 2000, Cell 100:197-207). Calcein (Sigma Chemical Co., St. Louis, Mo.) was dissolved in calcein buffer (0.15 M NaCl, 2% NaHCO3) and injected twice at 0.125 mg/g body weight on day 1 and 4, and then mice were killed on day 6. Unstained 4 μm sections were used for bone formation rate (BFR) measurements. For the analysis of parameters of osteoblasts and osteoclasts, 4 μm sections were stained with toluidine blue and tartrate-resistant acid phosphatase (TRAP), respectively (2). Histomorphometric analyses were performed using the Osteomeasure Analysis System (Osteometrics, Atlanta, Ga.).
Trabecular bone architecture of proximal tibia was assessed using a micro computed tomography (μCT) system (VivaCT 40, SCANCO Medical AG, Bassersdorf, Switzerland). Tibia bone specimen was stabilized with gauze in a 2 ml centrifuge tube filled with 70% ethanol and fastened in the specimen holder of the μCT scanner. One hundred μCT slices, corresponding to a 1.05 mm region distal from the growth plate, were acquired at an isotropic spatial resolution of 10.5 μm. A global thresholding technique was applied to binarize gray-scale μCT images where the minimum between the bone and bone marrow peaks in the voxel gray value histogram was chosen as the threshold value. The trabecular bone compartment was segmented by a semi-automatic contouring method and subjected to a model-independent morphological analysis (Hildebrand et al., 1999, J. Bone Miner. Res. 14:1167-1174) by the standard software provided by the manufacture of the μCT scanner. […]

[9] = 300 mg/kg i.p. three times per week, 3 to 12 weeks of age
[10] = LP-533,401 250 mg/kg/day, PTH 80 μg/kg/day

Sequence of rb 5-HT1B receptors (P49144 whole entry): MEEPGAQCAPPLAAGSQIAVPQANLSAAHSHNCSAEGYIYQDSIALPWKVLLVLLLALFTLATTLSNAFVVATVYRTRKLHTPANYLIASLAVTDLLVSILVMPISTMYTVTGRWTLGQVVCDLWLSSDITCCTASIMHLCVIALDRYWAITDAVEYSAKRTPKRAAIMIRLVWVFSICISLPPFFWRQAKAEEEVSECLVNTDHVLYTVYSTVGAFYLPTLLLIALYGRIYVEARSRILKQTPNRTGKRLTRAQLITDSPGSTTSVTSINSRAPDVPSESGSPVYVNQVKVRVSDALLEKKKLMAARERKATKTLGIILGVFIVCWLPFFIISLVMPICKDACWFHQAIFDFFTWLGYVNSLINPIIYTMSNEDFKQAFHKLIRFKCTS

## NCCc1c[nH]c2ccc(O)cc12 [serotonin, 5-hydroxytryptamine]
[1]
  expression of Cyclin D1: decreased
  expression of Cyclin D2: decreased
  expression of Osteocalcin: not modified
  expression of Runx2: not modified
  expression of Type I collagen: not modified
[2]
  CREB phosphorylation: significantly decreased
  binding of CREB to the Cyclin D1 promoter (ChIP): decreased

## COC(=O)C(=O)Nc1ccc(-c2cc(OC(c3ccc(-c4cccc(F)c4)cc3)C(F)(F)F)nc(N)n2)cc1 (stereo not shown) [Methyl 2-(4-(2-amino-6-(2,2,2-trifluoro-1-(3′-fluorobiphenyl-4-yl)ethoxy)pyrimidin-4-yl)phenylamino)-2-oxoacetate]
[3]
  Peripheral serotonin (ng/ml) (mean ± SEM): 23.76 ± 8.25 ng/mL

## O=C(c1ccc(F)cc1)C1CCN(CCn2c(=O)[nH]c3ccccc3c2=O)CC1 [ketanserin]
[4]
  behaviour at rb 5-HT1B receptors: as silent, competitive antagonists

## O=C(O)CN(CC(=O)O)Cc1ccc(CN(CC(=O)O)CC(=O)O)c(O)c1O [CBMIDA, Catechol-3,6-bis methyleneiminodiacetic acid]
[5]; 4 week old mice
  reduction of peripheral (serum) serotonin: ~45%
[5]; 4 week old mice, 500 mg/kg orally twice in 20 hours
  reduction of peripheral serotonin: about 80%
[5]; mice, 500 mg/kg orally twice daily
  serotonin serum levels, decrease below normal: 80 % below normal
[5]; oral feeding (FIG. 11)
  peripheral serotonin: reduces

## Nc1nc(OC(c2ccc(-c3cccc(F)c3)cc2)C(F)(F)F)cc(-c2ccc(OC[C@H](N)C(=O)O)cc2)n1 (stereo partly drawn) [(2S)-2-amino-3-(4-(2-amino-6-(2,2,2-trifluoro-1-(3′-fluorobiphenyl-4-yl)ethoxy)pyrimidin-4-yl)phenoxy)propanoic acid]
[3]
  Peripheral serotonin (ng/ml) (mean ± SEM): 93.77 ± 12.15 ng/mL

## CSc1ccc2c(c1)C(N1CCN(C)CC1)Cc1ccccc1S2 (stereo not shown) [methiothepin]
[4]
  behaviour at rb 5-HT1B receptors: as silent, competitive antagonists

## NC(Cc1ccc(Cl)cc1)C(=O)O (stereo not shown) [pCPA, para-chlorophenylalanine]
[5]; 4 week old mice
  reduction of peripheral (serum) serotonin: ~50%
[5]; mice, oral, control inhibitor
  serum serotonin levels, decrease below normal range: > 60 % below normal range
[6]
  crossing of the blood brain barrier: did not cross the blood brain barrier
  serotonin in the brain: did not decrease
[7]; [9]
  bone abnormalities (low bone phenotype) of Lrp5−/− mice: corrected
  bone mass in WT mice: without overtly affecting
[7]; Lrp5−/− mice, 300 mg/kg i.p.
  gut TPH1 mRNA: normalization
[7]; Lrp5−/− mice, 300 mg/kg i.p., 300 mg/kg
  serum serotonin levels: normalizes; also recorded: normalization
[7]; treated mice, 300 mg/kg i.p.
  Brain TPH2 mRNA levels: not affected

B1: PTH: recombinant human PTH, intermittent s.c. injections, standard to which bone anabolic agents are compared (protein, UniProt P01270 32-115, looked up)
Parathyroid hormone: SVSEIQLMHNLGKHLNSMERVEWLRKKLQDVHNFVALGAPLAPRDAGSQRPRKKEDNVLVESHEKSLGEADKADVNVLTKAKSQ
modifications: Parathyroid hormone
notes: recombinant human PTH, intermittent s.c. injections, standard to which bone anabolic agents are compared
[8]
  number of osteoclasts per bone surface (OcS/BS) versus untreated ovariectomized rats: similar
[8]; [10]
  decrease in cortical thickness at the femur mid-shaft: equally rescued
  maximal load (femur, vertebra): restored to values seen in sham-operated rats
  stiffness (femur, vertebra): restored to values seen in sham-operated rats
